Where a name gives a salt, the structure may show the parent alone. Read-outs that look alike come from different tables or passages of the source.
How the values were obtained:
[1] = system: non-insulin-dependent diabetes induced in rats by Streptozotocin; experiment: Antidiabetic activity in the Nostz rat (non-insulin-dependent diabetes induced by neonatal streptozotocin), glycaemia after oral treatment; assay type: in vivo; details: diabetic rats, blood 2 h after last administration; for change in vivo at 20 mg/kg: 20 mg/kg/D oral; for change in vivo at 200 mg/kg: 200 mg/kg/D oral
Procedure: Study of the Antidiabetic Activity in the Nostz Rat
The antidiabetic activity of the compounds of formula (I) administered orally was determined on an experimental model of non-insulin-dependent diabetes induced in rats by Streptozotocin.
The non-insulin-dependent diabetes model is obtained in rats by neonatal injection (on the day of birth) of streptozotocin.
The diabetic rats used were 8 weeks old. The animals were kept, from the day of their birth to the day of the experiment, in an animal house at a controlled temperature of 21 to 22° C. and subjected to a fixed cycle of light (from 7 am to 7 pm) and darkness (from 7 pm to 7 am). Their diet consisted of a maintenance diet, water and food were provided “ab libitum”, with the exception of the 2 hours of fasting preceding the tests when the food is withdrawn (postabsorptive state).
The rats were treated by the oral route for one (D1) or four (D4) days with the product to be tested. Two hours after the last administration of the product and 30 minutes after anaesthetizing the animals with sodium pentobarbital (Nembutal a), 300 μl of blood sample are collected from the end of the tail.
By way of example, results obtained are assembled in Table III.

[2] = 24 h, 1 day of treatment, read-out: percentage variation of glycaemia at D1 relative to D0
[3] = 96 h, 4 days of treatment, read-out: percentage variation of glycaemia at D4 relative to D0

Row | SMILES | melting point [°C] | change in vivo at 20 mg/kg [1, 2] [%] | change in vivo at 200 mg/kg [1, 2] [%] | change in vivo at 20 mg/kg [1, 3] [%] | change in vivo at 200 mg/kg [1, 3] [%]
1 | CC(CCC(=O)O)[C@H]1CCC2C3CCC4CC5(CC[C@]4(C)C3CC[C@@]21C)N=C(N)NC(N(C)C)=N5 (stereo partly shown) (as salt: HCl) | > 260 | – | – | – | –
2 | CCC1N=C(N)NC(N(C)C)=N1 (stereo not shown) (as salt: HCl) [Compound 1, 2-amino-3,6-dihydro-4-dimethylamino-6-ethyl-1,3,5-triazine hydrochloride] | 218 to 220 | – | – | – | –
3 | CC1N=C(N(C)C)NC(N(C)C)=N1 (as salt: HCl) [Compound 2, 2,4-bisdimethylamino-3,6-dihydro-6-methyl-1,3,5-triazine hydrochloride] | 200 to 202 | – | – | – | –
4 | CN(C)C1=NC2(CCCCC2)N=C(N)N1 (as salt: HCl) [Compound 4] | 243 to 245 | – | – | – | –
5 | CN(C)C1=NC(C)(CCCO)N=C(N)N1 (stereo not shown) (as salt: HCl) [Compound 7] | 150 to 152 | – | – | – | –
6 | C=CCNC1=NC(C)(C)N=C(N(C)C)N1 (as salt: HCl) [Compound 8] | 124 to 126 | – | – | – | –
7 | CC(C)NC1=NC(C)(C)N=C(N(C)C)N1 (as salt: HCl) [Compound 9] | 149 to 151 | – | – | – | –
8 | CN(C)C1=NC(c2ccccc2)N=C(N)N1 (stereo not shown) (as salt: HCl) [Compound 10] | 239 to 241 | – | – | – | –
9 | COc1ccc(C2N=C(N)NC(N(C)C)=N2)cc1 (stereo not shown) (as salt: HCl) [Compound 11] | 221 to 223 | – | – | – | –
10 | CN(C)C1=NC(c2ccc(O)cc2)N=C(N)N1 (stereo not shown) (as salt: HCl) [Compound 12] | 251 to 253 | – | – | – | –
11 | CN(C)C1=NC(C)(C)N=C(N(C)C)N1 (as salt: HCl) [Compound 15] | 250 to 252 | – | – | – | –
12 | CN(C)C1=NC(C)(C)N=C(N2CCCC2)N1 (as salt: HCl) [Compound 17] | > 260 | – | – | – | –
13 | CC(C)CCCC(C)[C@H]1CCC2C3CCC4CC5(CC[C@]4(C)C3CC[C@@]21C)N=C(N)NC(N(C)C)=N5 (stereo partly shown) (as salt: HCl) [Compound 19] | > 260 | – | – | – | –
14 | CNC1=NC2(CCCCC2)N=C(N(C)C)N1 (as salt: HCl) [Compound 22] | > 260 | – | – | – | –
15 | CCNC1=NC2(CCCCC2)N=C(N(C)C)N1 (as salt: HCl) [Compound 23] | 248 to 250 | – | – | – | –
16 | CC(CCC(=O)O)[C@H]1CCC2C3C(C[C@H](O)[C@@]21C)[C@@]1(C)CCC2(CC1C[C@H]3O)N=C(N)NC(N(C)C)=N2 (stereo partly shown) (as salt: HCl) [Compound 25] | > 260 | – | – | – | –
17 | C=CCNC1=NC(C)N=C(N(C)C)N1 (stereo not shown) (as salt: HCl) [Compound 26] | 91 to 92 | – | – | – | –
18 | CN(C)C1=NC2(CCC(OCc3ccccc3)CC2)N=C(N)N1 (stereo not shown) (as salt: HCl) [Compound 27] | > 260 | – | – | – | –
19 | CN(C)C1=NC2(CCC(O)CC2)N=C(N)N1 (stereo not shown) (as salt: HCl) [Compound 28] | > 250 | – | – | – | –
20 | CN(C)C1=NC2(CCCC2)N=C(N)N1 (as salt: HCl) [Compound 31] | 207 to 209 | – | – | – | –
21 | CN(C)C1=NC2(CCOCC2)N=C(N)N1 (as salt: HCl) [Compound 38] | > 260 | – | – | – | –
22 | CN1CCC2(CC1)N=C(N)NC(N(C)C)=N2 (as salt: HCl) [Compound 39] | > 260 | – | – | – | –
23 | CN(C)C1=NC(c2ccco2)N=C(N)N1 (stereo not shown) (as salt: HCl) [Compound 40] | 225 to 227 | – | – | – | –
24 | CN(C)C1=NC(C(C)(C)C)N=C(N)N1 (stereo not shown) (as salt: HCl) [Compound 42] | > 260 | – | – | – | –
25 | CCNC1=NC(C)(C)N=C(N(C)C)N1 (as salt: fumarate) [Compound 14] | 172 to 174 | – | – | – | –
26 | NC1=NC2(CCCCC2)N=C(NCCc2ccccc2)N1 (as salt: salt) [Compound 20] | 170 to 180 | – | – | – | –

Row | SMILES | melting point [°C] | change in vivo at 20 mg/kg [1, 2] [%] | change in vivo at 200 mg/kg [1, 2] [%] | change in vivo at 20 mg/kg [1, 3] [%] | change in vivo at 200 mg/kg [1, 3] [%]
27 | CC1N=C(N(C)C)NC(N2CCCC2)=N1 (stereo not shown) (as salt: salt) [Compound 21] | > 140 | – | – | – | –
28 | CCC1(CC)N=C(N)NC(N(C)C)=N1 (as salt: salt) [Compound 30] | 140 to 144 | – | – | – | –
29 | CN(C)C1=NC(C2CCCCC2)N=C(N)N1 (stereo not shown) (as salt: toluenesulphonate) [Compound 34] | 201 to 203 | – | – | – | –
30 | CN(C)C1=NC(C(F)(F)F)N=C(N)N1 (stereo not shown) (as salt: toluenesulphonate) [Compound 36] | 251 to 253 | – | – | – | –
31 | CN(C)C1=NC(Cc2ccccc2)N=C(N)N1 (stereo not shown) (as salt: toluenesulphonate) [Compound 37] | 159 to 161 | – | – | – | –
32 | CN(C)C1=NC(COc2ccccc2)N=C(N)N1 (stereo not shown) (as salt: toluenesulphonate) [Compound 41] | 194 to 196 | – | – | – | –
33 | CN(C)C1=NC(C2CC=CCC2)N=C(N)N1 (stereo not shown) (as salt: toluenesulphonate) [Compound 45] | 217 to 219 | – | – | – | –
34 | CC1N=C(N(C)C)NC(N(C)C)=N1 [Compound 2, 2,4-bisdimethylamino-3,6-dihydro-6-methyl-1,3,5-triazine hydrochloride] | – | -11 | -12 | -10 | -12
35 | CN(C)C1=NC(C)(C)N=C(N)N1 [Compound 3] | – | -10 | -18 | -8 | -22
36 | CN(C)C1=NC2(CCCCC2)N=C(N)N1 [Compound 4] | – | 0 | -20 | -1 | -10
37 | CN(C)C1=NC(C)(CCCO)N=C(N)N1 (stereo not shown) [Compound 6] | 138 to 140 | – | – | – | –
38 | CN(C)C1=NC(C)(CCCO)N=C(N)N1 (stereo not shown) [Compound 7] | – | -8 | -10 | -11 | -16
39 | CN(C)C1=NC(C)(C)N=C(N(C)C)N1 [Compound 15] | – | -8 | -4 | -9 | -5
40 | CN(C)C1=NC(C)(C)N=C(N2CCCC2)N1 [Compound 17] | – | -12 | -8 | -8 | -14
41 | CC(C)CCCC(C)[C@H]1CCC2C3CCC4CC5(CC[C@]4(C)C3CC[C@@]21C)N=C(N)NC(N(C)C)=N5 (stereo partly shown) [Compound 19] | – | -10 | -4 | -6 | -14
42 | CC1N=C(N(C)C)NC(N2CCCC2)=N1 (stereo not shown) [Compound 21] | – | -7 | -21 | -2 | -24
43 | CNC1=NC2(CCCCC2)N=C(N(C)C)N1 [Compound 22] | – | -23 | -13 | -16 | 0
44 | CC(CCC(=O)O)[C@H]1CCC2C3C(C[C@H](O)[C@@]21C)[C@@]1(C)CCC2(CC1C[C@H]3O)N=C(N)NC(N(C)C)=N2 (stereo partly shown) [Compound 25] | – | -4 | -7 | -11 | -6
45 | C=CCNC1=NC(C)N=C(N(C)C)N1 (stereo not shown) [Compound 26] | – | -6 | -14 | -11 | -9
46 | CN(C)C1=NC2(CCC(OCc3ccccc3)CC2)N=C(N)N1 (stereo not shown) [Compound 27] | – | -14 | -12 | -9 | -13
47 | CN(C)C1=NC2(CCC(O)CC2)N=C(N)N1 (stereo not shown) [Compound 28] | – | -4 | -4 | -1 | -13
48 | CN(C)C1=NC2(CCCC2)N=C(N)N1 [Compound 31] | – | -5 | -3 | -11 | -15
49 | CCCC1N=C(N)NC(N(C)C)=N1 (stereo not shown) [Compound 32] | – | 2 | -22 | 0 | -18
50 | CN1CCC2(CC1)N=C(N)NC(N(C)C)=N2 [Compound 39] | – | -6 | -4 | -6 | -7
51 | CN(C)C1=NC(C(C)(C)C)N=C(N)N1 (stereo not shown) [Compound 42] | – | -5 | -26 | -4 | -17
52 | CC(C)C1N=C(N)NC(N(C)C)=N1 (stereo not shown) [Compound 44] | – | -7 | -22 | -6 | -25

Source: US7767676B2, “Dihydro-1,3,5-triazine amine derivatives and their therapeutic uses” (Merck Sante, priority 2000, dated 2010)
